According to patent US11607422B2, “Uttroside B and derivatives thereof as therapeutics for hepatocellular carcinoma” (Rajiv Gandhi Centre for Biotechnology, an Autonomous …, priority 2016, dated 2023):

Experiments:
Format in all cases: cell-based, human
[1] = system: HepG2 cells; assay: Cell cycle analysis by flow cytometry (propidium iodide); settings: HepG2, 48 h, all concentrations studied
Description: FIGS. 3A-3F show Uttroside B induces caspase-dependent apoptosis leading to PARP cleavage in HepG2 cells while being independent of cell cycle. FIGS. 3A-3E are images of Western blots showing caspase activation in HepG2 cells. Whole-cell extracts were prepared after treating HepG2 cells with indicated concentrations of Uttroside B for 48 h, the whole cell lysate was resolved on a 15% gel and subjected to western blotting using antibodies against the caspases 8, 9 & 7 detected by ECL. HepG2 cells were treated with Uttroside B for 48 h at different concentrations and the whole cell lysate was resolved on a 10% gel, immunoblotted against anti-PARP and detected by ECL. […] HepG2 cells were treated with Uttroside B for 48 h, stained with propidium iodide and the cell cycle analysis was done using fluorescence activated cell sorter. Curcumin 25 μM (24 h) is used as positive control.
Flow cytometry: Cell cycle analysis helps in distinguishing the distribution of a population of cells to the different stages of the cycle. Cell cycle analysis using flow cytometry was performed to investigate the cell cycle arrest induced by Uttroside B. Cell cycle analysis is performed by quantitative measurement of nuclear DNA content in a cell by staining DNA with propidium iodide. […]

[2] = system: mTOR pathway in HepG2 cells; assay: Western blot of mTOR and downstream target phosphorylation
Description: FIGS. 4A-4E are images showing Uttroside B inhibits MAPK and mTOR signaling, some of the crucial survival signals in liver cancer. […] HepG2 cells were treated with Uttroside B for different time intervals (0-240 min) and the whole cell lysate was resolved on a 10% gel and immunoblotted against phospho-ERK1/2 and phospho-Akt antibodies. Taxol was used as a positive control. […] HepG2 cells were treated with Uttroside B at different time intervals and the whole cell lysate was resolved on an 8% gel and immunoblotted against phospho-mTOR (2448) and phospho-mTOR (2481) antibodies.
Western blot analysis. Approximately 0.5×10^6 cells were grown on 60 mm culture plates and exposed to drugs as indicated for the desired time. The cells were then scraped out, washed in ice cold 1× PBS and pelleted down at 13000 rpm for 2 min. […]
Uttroside B inhibits mTOR signaling, a crucial survival signal in liver cancer. […] Concomitantly, the phosphorylation of p70S6 kinase and 4E-BP-1, two m-TOR substrates whose phosphorylation can be considered as the read out of m-TOR activity, was found reduced in response to Uttroside B-treatment. […]

[3] = system: autophagy related proteins in HepG2 cells; assay: Western blot of autophagy related proteins in HepG2 cells; settings: time dependent
Description: Western blot analysis. Approximately 0.5×10^6 cells were grown on 60 mm culture plates and exposed to drugs as indicated for the desired time. The cells were then scraped out, washed in ice cold 1× PBS and pelleted down at 13000 rpm for 2 min. The pelleted cells were suspended in 150 μL of ice-cold whole cell lysis buffer[(20 mMTris of pH 7.4, 250 mM NaCl, 2 mM EDTA, 0.1% Triton, 1 mM DTT (1,4-dithiothreitol), 0.5 mM PMSF, 4 mM sodium orthovanadate, aprotinin (5 mg m/L) and leupeptin (5 mg m/L)] and kept in ice for 30 min, with intermittent vortexing every 5 min. After incubation, the lysate was centrifuged at 13000 rpm for 10 min at 4° C. and the supernatant was collected. The total protein content in the lysate was estimated by Bradford's method, and was then denatured by boiling with 5× loading dye before separating the proteins by SDSpolyacrylamidegel electrophoresis (SDS-PAGE). […]

Structure (SMILES): C[C@H](CC[C@@]1(O)O[C@H]2C[C@H]3[C@@H]4CC[C@H]5C[C@@H](O[C@@H]6O[C@H](CO)[C@H](O[C@@H]7O[C@H](CO)[C@@H](O)[C@H](O[C@@H]8OC[C@@H](O)[C@H](O)[C@H]8O)[C@H]7O[C@@H]7O[C@H](CO)[C@@H](O)[C@H](O)[C@H]7O)[C@H](O)[C@H]6O)CC[C@]5(C)[C@H]4CC[C@]3(C)[C@H]2[C@@H]1C)CO[C@@H]1O[C@H](CO)[C@@H](O)[C@H](O)[C@H]1O [Uttroside B]
- effect on cell cycle [1]: did not show any significant effect on cell cycle
- phosphorylation of p70S6 kinase and 4E-BP-1 [2]: found reduced
- phosphorylation of mTOR ([2]; different time intervals): time dependent decrease in the phosphorylation of m-TOR at 2448 and 2481 phosphorylation sites
- expression of autophagy related proteins, HepG2 [3]: induces up-regulation of all autophagy related proteins in a time dependent manner
